Experimental data taken from patent US20120251525A1, “METHOD OF UTILIZING AZELAIC ACID ESTERS TO MODULATE COMM[…] BY […]” (priority 2009, published 2012).

What was measured:
human choroidal melanoma = conditions: Breathnach et al. 1989; cited from earlier work
EpiDerm tissues = assay: MatTek EpiDerm in vitro human skin model, croton oil irritant, multiplex immunoassay of markers; type: cell-based; conditions: for tissue levels of IL-17 / tissue levels of MIP-1-alpha: relative to control (croton oil only)
[1] = clinical practice; cited from earlier work
[2] = system: human cutaneous malignant melanoma; conditions: Zaffaroni et al. 1990; cited from earlier work
[3] = system: human squamous cell carcinoma; conditions: Paetzold et al. 1989; cited from earlier work
[4] = system: various fibroblastic lines; conditions: Geier et al. 1986; cited from earlier work
[5] = growth medium, croton oil, 24 hours, relative to control
[6] = tissue, croton oil, 24 hours, relative to control

SMILES | antiproliferative and cytotoxic action (human choroidal melanoma) | tissue levels of IL-17 (EpiDerm tissues; tissue) | tissue levels of MIP-1-alpha (EpiDerm tissues; tissue) | major dose limiting toxicity [1] | antiproliferative and cytotoxic action [2] | antiproliferative and cytotoxic action [3] | antiproliferative and cytotoxic action [4] | IL-1-beta medium marker level (EpiDerm tissues; [5]) | IL-4 medium marker level (EpiDerm tissues; [5]) | IL-10 medium marker level (EpiDerm tissues; [5]) | TNF-alpha medium marker level (EpiDerm tissues; [5]) | IL-1-beta tissue level (EpiDerm tissues; [6]) | IL-4 tissue level (EpiDerm tissues; [6]) | IL-10 tissue level (EpiDerm tissues; [6]) | TNF-alpha tissue level (EpiDerm tissues; [6]) | IL-8 modulation (EpiDerm tissues; matrix not stated) | IL-17 modulation (EpiDerm tissues; matrix not stated) | IL-23 modulation (EpiDerm tissues; matrix not stated)
O=C(O)CCCCCCCC(=O)O [azelaic acid] | antiproliferative and cytotoxic action | significantly lower than control | elevated relative to control | skin irritation | antiproliferative and cytotoxic action | antiproliferative and cytotoxic action | antiproliferative and cytotoxic action | – | – | – | – | – | – | – | – | – | – | –
COC(=O)CCCCCCCC(=O)OC [DMA, dimethylazelate] | – | – | – | – | – | – | – | increased | increases | increases | increased | decreased relative to control | decreased relative to control | decreased relative to control | decreased relative to control | – | – | –
CCOC(=O)CCCCCCCC(=O)OCC [DEA, diethyl azelate] | – | exceedingly high relative to control | elevated relative to control | – | – | – | – | – | – | – | – | – | – | – | – | suppressing | suppressing | suppressing
